# Measurements published in US6737383B1, “Herbicidal oxadiazolidines” (priority 1999, dated 2004).
# Legend:
# [1] = test system: sugar beet; assay: Test B pre/postemergence sugar beet; format: in vivo, Beta vulgaris
# Outline: (§1)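 Response is a visual 0-to-10 score relative to untreated plants, where 0 means no effect and 10 means complete control, taken twelve to sixteen days after application. Treatments went onto soil at planting and onto foliage of 1- to 4-leaf plants, using a surfactant-containing non-phytotoxic solvent.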
# [2] = test system: blackgrass; assay: Test B pre/postemergence blackgrass; format: in vivo, Alopecurus myosuroides
# Outline: as §1
# [3] = test system: velvetleaf; assay: Test B pre/postemergence velvetleaf; format: in vivo, Abutilon theophrasti
# Outline: as §1
# [4] = test system: soybean; assay: Test B pre/postemergence soybean; format: in vivo, Glycine max
# Outline: as §1
# [5] = test system: bedstraw; assay: Test B pre/postemergence bedstraw; format: in vivo, Galium aparine
# Outline: as §1
# [6] = test system: giant foxtail; assay: Test B pre/postemergence giant foxtail; format: in vivo, Setaria faberii
# Outline: as §1
# [7] = test system: pigweed; assay: Test B pre/postemergence pigweed; format: in vivo, Amaranthus retroflexus
# Outline: as §1
# [8] = test system: wild oat; assay: Test B pre/postemergence wild oat; format: in vivo, Avena fatua
# Outline: as §1
# [9] = test system: rape; assay: Test B pre/postemergence rape; format: in vivo, Brassica napus
# Outline: as §1
# [10] = test system: purple nutsedge; assay: Test B pre/postemergence purple nutsedge; format: in vivo, Cyperus rotundus
# Outline: as §1
# [11] = test system: morningglory; assay: Test B pre/postemergence morningglory; format: in vivo, Ipomoea hederacea
# Outline: as §1
# [12] = test system: crabgrass; assay: Test B pre/postemergence crabgrass; format: in vivo, Digitaria sanguinalis
# Outline: as §1
# [13] = test system: cocklebur; assay: Test B pre/postemergence cocklebur; format: in vivo, Xanthium strumarium
# Outline: as §1
# [14] = test system: wheat; assay: Test B pre/postemergence wheat; format: in vivo, Triticum aestivum
# Outline: as §1
# [15] = test system: surinam grass; assay: Test B pre/postemergence surinam grass; format: in vivo, Brachiaria decumbens
# Outline: as §1
# [16] = test system: corn; assay: Test B pre/postemergence corn; format: in vivo, Zea mays
# Outline: as §1
# [17] = Postemergence, Rate 62 g/ha, scale of 0 to 10, 0 is no effect, 10 is complete control
# [18] = Postemergence, Rate 125 g/ha, scale 0 to 10, 0 is no effect, 10 is complete control
# [19] = Postemergence, Rate 500 g/ha, scale 0 to 10, 0 is no effect, 10 is complete control
# [20] = Preemergence, Rate 62 g/ha, scale of 0 to 10 where 0 is no effect and 10 is complete control
# [21] = Preemergence, Rate 125 g/ha, scale 0 to 10, 0 is no effect, 10 is complete control
# [22] = Preemergence, Rate 500 g/ha, scale of 0 to 10 where 0 is no effect and 10 is complete control
# [23] = Rate 250 g/ha, Postemergence, scale of 0 to 10 where 0 is no effect and 10 is complete control
# [24] = Preemergence, Rate 500 g/ha, scale 0 to 10, 0 is no effect, 10 is complete control
smiles,measurement,setting,value
CCOC(=O)C=C(Cn1c(=O)on(C(=O)N(c2ccc(F)cc2F)C(C)C)c1=O)OCC [Compound 519],Sugarbeets plant response rating,[1]; [17],0
same,Sugarbeets plant response rating,[1]; [18],0
same,"Plant response rating, Sugarbeets",[1]; [19],0
same,"Plant response rating, Sugarbeets",[1]; [20],0
same,Sugarbeets plant response rating,[1]; [21],0
same,Sugarbeets plant response rating (0 to 10 scale),"[1]; Preemergence, Rate 250 g/ha",0
same,Sugarbeets plant response rating,[1]; [22],0
same,"Plant response rating, Sugarbeets",[1]; [23],0
same,Blackgrass plant response rating,[2]; [17],0
same,Blackgrass plant response rating,[2]; [18],0
same,"Plant response rating, Blackgrass",[2]; [19],0
same,"Plant response rating, Blackgrass",[2]; [20],0
same,Blackgrass plant response rating,[2]; [21],0
same,Blackgrass plant response rating (0 to 10 scale),"[2]; Preemergence, Rate 250 g/ha",4
same,Blackgrass plant response rating,[2]; [22],4
same,"Plant response rating, Blackgrass",[2]; [23],0
same,Velvetleaf plant response rating,[3]; [17],2
same,Velvetleaf plant response rating,[3]; [18],2
same,"Plant response rating, Velvetleaf",[3]; [19],4
same,"Plant response rating, Velvetleaf",[3]; [20],0
same,Velvetleaf plant response rating,[3]; [21],0
same,Velvetleaf plant response rating (0 to 10 scale),"[3]; Preemergence, Rate 250 g/ha",0
same,Velvetleaf plant response rating,[3]; [22],0
same,"Plant response rating, Velvetleaf",[3]; [23],4
same,Soybean plant response rating,[4]; [17],3
same,Soybean plant response rating,[4]; [18],3
same,"Plant response rating, Soybean",[4]; [19],4
same,"Plant response rating, Soybean",[4]; [20],0
same,Soybean plant response rating,[4]; [21],0
same,Soybean plant response rating (0 to 10 scale),"[4]; Preemergence, Rate 250 g/ha",0
same,Soybean plant response rating,[4]; [22],0
same,"Plant response rating, Soybean",[4]; [23],4
same,Bedstraw plant response rating,[5]; [17],0
same,"Plant response rating, Bedstraw",[5]; [19],0
same,"Plant response rating, Bedstraw",[5]; [20],0
same,Bedstraw plant response rating,[5]; [21],0
same,Bedstraw plant response rating (0 to 10 scale),"[5]; Preemergence, Rate 250 g/ha",0
same,Bedstraw plant response rating,[5]; [24],0
same,"Plant response rating, Bedstraw",[5]; [23],0
same,Giant foxtail plant response rating,[6]; [17],4
same,Giant foxtail plant response rating,[6]; [18],4
same,"Plant response rating, Giant foxtail",[6]; [19],6
same,"Plant response rating, Giant foxtail",[6]; [20],10
same,Giant foxtail plant response rating,[6]; [21],10
same,Giant foxtail plant response rating (0 to 10 scale),"[6]; Preemergence, Rate 250 g/ha",10
same,Giant foxtail plant response rating,[6]; [22],10
same,"Plant response rating, Giant foxtail",[6]; [23],4
same,Redroot pigweed plant response rating,[7]; [17],0
same,Redroot pigweed plant response rating,[7]; [18],0
same,"Plant response rating, Redroot pigweed",[7]; [19],0
same,"Plant response rating, Redroot pigweed",[7]; [20],0
same,Redroot pigweed plant response rating,[7]; [21],0
same,Redroot pigweed plant response rating (0 to 10 scale),"[7]; Preemergence, Rate 250 g/ha",0
same,Redroot pigweed plant response rating,[7]; [22],0
same,"Plant response rating, Redroot pigweed",[7]; [23],0
same,Wild oats plant response rating,[8]; [17],0
same,Wild oats plant response rating,[8]; [18],0
same,"Plant response rating, Wild oats",[8]; [19],0
same,"Plant response rating, Wild oats",[8]; [20],0
same,Wild oats plant response rating,[8]; [21],0
same,Wild oats plant response rating (0 to 10 scale),"[8]; Preemergence, Rate 250 g/ha",0
same,Wild oats plant response rating,[8]; [22],0
same,"Plant response rating, Wild oats",[8]; [23],0
same,Rape plant response rating,[9]; [17],0
same,Rape plant response rating,[9]; [18],0
same,"Plant response rating, Rape",[9]; [19],0
same,"Plant response rating, Rape",[9]; [20],0
same,Rape plant response rating,[9]; [21],0
same,Rape plant response rating (0 to 10 scale),"[9]; Preemergence, Rate 250 g/ha",0
same,Rape plant response rating,[9]; [22],0
same,"Plant response rating, Rape",[9]; [23],0
same,Nutsedge plant response rating,[10]; [18],0
same,"Plant response rating, Nutsedge",[10]; [19],0
same,"Plant response rating, Nutsedge",[10]; [20],0
same,Nutsedge plant response rating,[10]; [21],0
same,Nutsedge plant response rating,[10]; [22],0
same,Morningglory plant response rating,[11]; [17],0
same,Morningglory plant response rating,[11]; [18],0
same,"Plant response rating, Morningglory",[11]; [19],0
same,"Plant response rating, Morningglory",[11]; [20],0
same,Morningglory plant response rating,[11]; [21],0
same,Morningglory plant response rating (0 to 10 scale),"[11]; Preemergence, Rate 250 g/ha",0
same,Morningglory plant response rating,[11]; [22],0
same,"Plant response rating, Morningglory",[11]; [23],0
same,Crabgrass plant response rating,[12]; [17],0
same,Crabgrass plant response rating,[12]; [18],2
same,"Plant response rating, Crabgrass",[12]; [19],6
same,"Plant response rating, Crabgrass",[12]; [20],7
same,Crabgrass plant response rating,[12]; [21],8
same,Crabgrass plant response rating (0 to 10 scale),"[12]; Preemergence, Rate 250 g/ha",10
same,Crabgrass plant response rating,[12]; [22],10
same,"Plant response rating, Crabgrass",[12]; [23],6
same,Cocklebur plant response rating,[13]; [17],0
same,Cocklebur plant response rating,[13]; [18],0
same,"Plant response rating, Cocklebur",[13]; [19],0
same,"Plant response rating, Cocklebur",[13]; [20],0
same,Cocklebur plant response rating,[13]; [21],0
same,Cocklebur plant response rating (0 to 10 scale),"[13]; Preemergence, Rate 250 g/ha",0
same,Cocklebur plant response rating,[13]; [22],0
same,"Plant response rating, Cocklebur",[13]; [23],0
same,Wheat plant response rating,[14]; [17],0
same,Wheat plant response rating,[14]; [18],0
same,"Plant response rating, Wheat",[14]; [19],0
same,"Plant response rating, Wheat",[14]; [20],0
same,Wheat plant response rating,[14]; [21],0
same,Wheat plant response rating (0 to 10 scale),"[14]; Preemergence, Rate 250 g/ha",0
same,Wheat plant response rating,[14]; [22],0
same,"Plant response rating, Wheat",[14]; [23],0
same,B. signalgrass plant response rating,[15]; [17],0
same,B. signalgrass plant response rating,[15]; [18],0
same,"Plant response rating, B. signalgrass",[15]; [19],0
same,"Plant response rating, B. signalgrass",[15]; [20],0
same,B. signalgrass plant response rating,[15]; [21],0
same,"B. signalgrass plant response rating (0 to 10 scale, 0 is no effect, 10 is complete control)","[15]; Preemergence, Rate 250 g/ha",0
same,B. signalgrass plant response rating,[15]; [24],0
same,"Plant response rating, B. signalgrass",[15]; [23],0
same,Corn plant response rating,[16]; [17],0
same,Corn plant response rating,[16]; [18],0
same,"Plant response rating, Corn",[16]; [19],0
same,"Plant response rating, Corn",[16]; [20],0
same,Corn plant response rating,[16]; [21],0
same,Corn plant response rating (0 to 10 scale),"[16]; Preemergence, Rate 250 g/ha",0
same,Corn plant response rating,[16]; [22],0
same,"Plant response rating, Corn",[16]; [23],0
